{
  "source": "ChEMBL document CHEMBL2034872",
  "about": "“Antineoplastic agents. 587. Isolation and structure of 3-epipancratistatin from Narcissus cv. Ice Follies” (2012)",
  "assay_type_in_all_cases": "functional",
  "key": {"MCF7": {"tested_on": "MCF7", "experiment": "Cytotoxicity against human MCF7 cells after 48 hrs by SRB assay", "settings": "MCF7, 48 h"}, "KM-20L2": {"tested_on": "KM-20L2", "experiment": "Cytotoxicity against human KM20L2 cells after 48 hrs by SRB assay", "settings": "KM-20L2, 48 h"}, "SF-268": {"tested_on": "SF-268", "experiment": "Cytotoxicity against human SF268 cells after 48 hrs by SRB assay", "settings": "SF-268, 48 h"}, "BXPC-3": {"tested_on": "BXPC-3", "experiment": "Cytotoxicity against human BxPC3 cells after 48 hrs by SRB assay", "settings": "BXPC-3, 48 h"}, "DU-145": {"tested_on": "DU-145", "experiment": "Cytotoxicity against human DU145 cells after 48 hrs by SRB assay", "settings": "DU-145, 48 h"}, "P388": {"tested_on": "P388", "experiment": "Cytotoxicity against mouse P388 cells after 48 hrs by cell counting", "settings": "P388, 48 h, read-out: ED50 (the source's name)"}, "NCI-H460": {"tested_on": "NCI-H460", "experiment": "Cytotoxicity against human NCI-H460 cells after 48 hrs by SRB assay", "settings": "NCI-H460, 48 h"}},
  "data": [
    {"smiles": "O=C1N[C@H]2[C@H](O)[C@H](O)[C@@H](O)[C@H](O)[C@@H]2c2cc3c(c(O)c21)OCO3", "note": "[PANCRATISTATIN]", "values": [
      {"measurement": "GI50", "setting": "MCF7", "result": 0.023, "unit": "µg/mL"},
      {"measurement": "GI50", "setting": "KM-20L2", "result": 0.025, "unit": "µg/mL"},
      {"measurement": "GI50", "setting": "SF-268", "result": 0.014, "unit": "µg/mL"},
      {"measurement": "GI50", "setting": "BXPC-3", "result": 0.02, "unit": "µg/mL"},
      {"measurement": "GI50", "setting": "DU-145", "result": 0.015, "unit": "µg/mL"},
      {"measurement": "EC50", "setting": "P388", "result": 0.017, "unit": "µg/mL"},
      {"measurement": "GI50", "setting": "NCI-H460", "result": 0.032, "unit": "µg/mL"}
    ]},
    {"smiles": "O=C1N[C@H]2[C@H](O)[C@@H](O)[C@@H](O)[C@H](O)[C@@H]2c2cc3c(c(O)c21)OCO3", "note": "(relative stereo)", "values": [
      {"measurement": "GI50", "setting": "MCF7", "result": 2.2, "unit": "µg/mL"},
      {"measurement": "GI50", "setting": "KM-20L2", "result": 2.3, "unit": "µg/mL"},
      {"measurement": "GI50", "setting": "SF-268", "result": 0.74, "unit": "µg/mL"},
      {"measurement": "GI50", "setting": "BXPC-3", "result": 1.7, "unit": "µg/mL"},
      {"measurement": "GI50", "setting": "DU-145", "result": 1.3, "unit": "µg/mL"},
      {"measurement": "EC50", "setting": "P388", "result": 0.69, "unit": "µg/mL"},
      {"measurement": "GI50", "setting": "NCI-H460", "result": 0.85, "unit": "µg/mL"}
    ]},
    {"smiles": "O=C1N[C@@H]2C(=C[C@H](O)[C@@H](O)[C@H]2O)c2cc3c(c(O)c21)OCO3", "note": "[NARCICLASINE]", "values": [
      {"measurement": "EC50", "setting": "P388", "result": 0.018, "unit": "µg/mL"}
    ]}
  ]
}
